Data reported in patent publication US6384019B1, “Gemcitabine derivatives” (Norsk Hydro ASA, priority 1997, dated 2002).
Values joined by “and” are separate entries in the source; they are usually repeats but may differ in a detail not shown here. Identical values can stand only once. Like-named read-outs stand apart in the source and are kept apart here.

Assays:
subline C26G = test: Cytotoxicity, continuous drug exposure 72 hours, SRB assay; type: cell-based, murine; conditions: 72 hours continuous exposure, read-out: IC50 cytotoxicity C2G-G
Excerpt: (§1) The cytoxicity activity of Gemcitabine-N^4-elaidic amide and Gemcitabine-5′-elaidic ester were investigated in 2 pairs of rodent and human tumour cell lines, each consisting of a parent line and a subline either resistant or cross-resistant to Gemcitabine.
(§2) The cell lines were the human ovarian tumour line A2780 and subline AG6000 which is resistant to Gemcitabine and has a deficiency of deoxycytidine kinase, and the murine colon tumour line C26A and the subline C26G with no altered deoxycytidine kinase but a 10-fold decrease in thymidine kinase I. The cytotoxicity of each compound was evaluated following continuous drug exposure for 72 hours. The cell numbers were determined by SRB assay, and percentage growth inhibition was calculated for each tumour line as IC50 value, given in μM, that is the concentration of the compound giving rise to a 50% growth inhibition compared to control.

[1] = tested on: murine lymphatic leukaemia P 388 cells; test: P-388 ip in mice, single or repeated doses; type: in vivo
Excerpt: (§3) The anti tumour effect of Gemcitabine-N^4-elaidic amide or Gemcitabine-5′-elaidic ester were investigated in-vivo in mice in two different tumour types, both with single and repeated dosing
B6D2F1 female mice were implanted with the murine lymphatic leukaemia P 388 cells intraperitoneally. Treatments were initiated on day 1 post implantation of cells intraperitoneally. […] Single dose treatment with Gemcitabine-5′-elaidic ester was effective with prolonged survival time and long term survivor observed compared to the same dose of Gemcitabine.

CEM cells = test: Cytostatic activity in CEM cells with and without nucleoside transport modifiers; type: cell-based; conditions: for Rise in IC50 with the addition of NT inhibitors: with versus without NT inhibitors
Procedure: The cytostatic activity of gemcitabine and gemcitabine-5′-elaidic acid ester in CEM cells was determined with and without the nucleoside transport modifiers Nitrobenzylthioinosine (NBMPR) or Persantine (Pyridamole). […] With the addition of NT inhibitors, there is a ten-fold rise in the IC50 gemcitabine values, while the IC50 gemcitabine-5′-elaidic acid ester is little affected (1.3-1.5 increase).

[2] = tested on: murine colon cancer Co-26; test: Co-26 inoculated intrasplenic to mice, intraperitoneal treatment; type: in vivo
Procedure: as §3
Balb/c female mice were inoculated with the murine colon cancer Co-26 in the spleen on day 0. In this model, tumours develop mainly in the liver. Intraperitoneal treatment was started on day 1. Single doses of the compounds were tested in comparison with Gemcitabine at single dose. Saline was used as control.
In parallel experiment, dosing was repeated on days 1-11

[3] = tested on: murine colon tumour line C26A; test: Cytotoxicity, continuous drug exposure 72 hours, SRB assay; type: cell-based; conditions: 72 hours continuous exposure, read-out: IC50 cytotoxicity C26-A
Excerpt: as §1, §2

[4] = tested on: human ovarian tumour line A2780; test: as above; type: cell-based
Excerpt: as §1, §2

[5] = tested on: subline AG6000 (resistant to Gemcitabine, deficiency of deoxycytidine kinase); test: as above; type: cell-based, human
Excerpt: as §1, §2

[6] = cited from earlier work
[7] = P-388, repeated dose days 1-4, 15 Mg/kg
[8] = P-388, repeated dose days 1-11, 1 mg/kg
[9] = P-388, repeated dose days 1-11, 4 mg/kg
[10] = P-388, single dose treatment, 75 mg/kg
[11] = Co-26, repeated dosing days 1-11, 1 mg/kg
[12] = Co-26, repeated dosing days 1-11, 4 mg/kg
[13] = Co-26, single dose ip day 1, 75 mg/kg
[14] = Co-26, single dose ip day 1, 100 mg/kg
[15] = P-388, single dose treatment, 100 mg/kg
[16] = P-388, repeated dose days 1-4, 1 Mg/kg
[17] = P-388, repeated dose days 1-4, 4 Mg/kg
[18] = Co-26, single dose ip day 1, 25 mg/kg

| SMILES | Long term survivors (>45 d) [1, 8] | Mean survival time T/C [1, 8] | Toxic deaths [1, 8] | Long term survivors (>45 d) [1, 9] | Mean survival time T/C [1, 9] | Toxic deaths [1, 9] | Long term survivors (>35 d) [1, 10] | Mean survival time T/C [1, 10] | Toxic deaths [1, 10] | Rise in IC50 with the addition of NT inhibitors (CEM cells; CEM cells) | Long term survivors (>46 d) [2, 11] | Mean survival time T/C [2, 11] | Toxic deaths [2, 11] | Long term survivors (>46 d) [2, 12] | Mean survival time T/C [2, 12] | Toxic deaths [2, 12] | Long term survivors (>35 d) [2, 13] | Mean survival time T/C [2, 13] | Toxic deaths [2, 13] | Long term survivors (>35 d) [2, 14] | also measured |
| --- | --- | --- | --- | --- | --- | --- | --- | --- | --- | --- | --- | --- | --- | --- | --- | --- | --- | --- | --- | --- | --- |
| Nc1ccn([C@@H]2O[C@H](CO)[C@@H](O)C2(F)F)c(=O)n1 [Gemcitabine, 2′,2′-difluoro-deoxycytidine] |  0/6 | 178.8% |  0/6 |  0/6 | 71.9% | 6/6 |  0/6 | 138.9% |  0/7 | ten-fold rise |  2/8 | 170.6% | ⅛ |  0/8 | toxic |  8/8 |  2/7 | 132.8% |  0/7 |  4/7 | IC50 (subline C26G; Mus musculus): 7.5 nM; Long term survivors (>35 d) [1, 7]:  0/6; Mean survival time T/C [1, 7]: 58.0%; Toxic deaths [1, 7]: all animals died of toxicity and  6/6; IC50 (CEM cells; Homo sapiens, CCRF-CEM, read-out: IC50 Persantine 4 μg/ml): 1260 ± 40 nM; IC50 (CEM cells; Homo sapiens, CCRF-CEM, CEM cells, NBMPR 100 μM, read-out: IC50 NBMPR 100 μM): 1110 ± 80 nM; IC50 (CEM cells; Homo sapiens, CCRF-CEM, CEM cells, no inhibitor, read-out: IC50 No inhibitor): 110 ± 10 nM; Mean survival time T/C [2, 14]: 116.2%; Toxic deaths [2, 14]:  0/7; IC50 ([3]; Mus musculus): 5.5 nM; IC50 ([4]; Homo sapiens, A2780, 72 hours continuous exposure): 0.5 nM; IC50 ([5]; Homo sapiens, AG6000, 72 hours continuous exposure): 100000 nM; Plasma concentration that inhibits the anti-cancer effect (saturation of the phosphorylation mechanism) [6]: above 35 μM; Plasma concentration with optimal effect [6]: about 20 μM |
| CCCCCCCC/C=C/CCCCCCCC(=O)OC[C@H]1O[C@@H](n2ccc(N)nc2=O)C(F)(F)[C@@H]1O [Gemcitabine-5′-elaidic ester, Elaidic Acid (5′)-Gemcitabine Ester] |  0/6 | 317.0% |  0/6 |  2/6 | 220.6% |  0/6 | ⅙ | 186.3% |  0/6 | 1.3-1.5 fold | ⅛ | 150.6% |  0/8 | ⅜ | 166.9% |  2/8 |  1/7 | 128.6% |  0/7 |  4/7 | IC50 (subline C26G): 0.5 nM; Long term survivors (>35 d) [1, 15]:  0/6; Mean survival time T/C [1, 15]: 138.9%; Toxic deaths [1, 15]:  0/6; IC50 (CEM cells; CEM cells, NBMPR 100 μM, read-out: IC50 NBMPR 100 μM): 72 ± 34 nM; IC50 (CEM cells; CEM cells, Persantine 4 μg/ml, read-out: IC50 Persantine 4 μg/ml): 65 ± 23 nM; IC50 (CEM cells; CEM cells, no inhibitor, read-out: IC50 No inhibitor): 47 ± 6 nM; Potency relative to the mother drug in the "resistant" situation (CEM cells; CEM cells, with NT inhibitors, versus gemcitabine): 15-20 fold; Mean survival time T/C [2, 14]: 100.1%; Toxic deaths [2, 14]:  0/7; IC50 [3]: 0.3 nM; IC50 ([4]; 72 hours continuous exposure): < 0.1 nM; IC50 ([5]; 72 hours continuous exposure): 100000 nM |
| CCCCCCCC/C=C/CCCCCCCC(=O)Nc1ccn(C2OC(CO)C(O)C2(F)F)c(=O)n1 (centres unmarked) [Gemcitabine-N^4-elaidic amide, Elaidic Acid (N^4)-Gemcitabine Amide] | ⅙ | 172.5% |  0/6 |  0/6 | 215.7% |  0/6 | – | – | – | – |  2/8 | 155% |  0/8 | ⅛ | 185.6% |  0/8 | – | – | – | – | IC50 (subline C26G): < 0.1 nM; Long term survivors (>35 d) [1, 16]:  2/6; Mean survival time T/C [1, 16]: 178%; Toxic deaths [1, 16]:  0/6; Long term survivors (>35 d) [1, 17]: ⅙; Mean survival time T/C [1, 17]: 183%; Toxic deaths [1, 17]:  0/6; Long term survivors (>35 d) [2, 18]: 5/8 and ⅝; Mean survival time T/C [2, 18]: 103.7%; Toxic deaths [2, 18]: ⅛; IC50 [3]: < 0.1 nM; IC50 ([4]; 72 hours continuous exposure): < 0.1 nM; IC50 ([5]; 72 hours continuous exposure): 35000 nM |
